Laboratory results published in patent US20180228780A1, “3-(1H-PYRROLO[2,3-C]PYRIDIN-2-YL)-1H-INDAZOLES AND THERAPEUTIC USES THEREOF” (Samumed, LLC, priority 2015, published 2018).

Columns and labels:
Format in all cases: cell-based
IL-6 (THP-1 cells) = test: IL-6 inhibition in THP-1 monocytes (HTRF); settings: Homo sapiens; IL-6 inhibition, THP-1 cells, HTRF, 10-point dose-response starting from 10 μM
Summary of the method: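 THP-1 cells serum-reduced (1% FBS, 24 h), plated 5000/well, stimulated with 500 ng/mL […] after 2 h and incubated a further 22 h at 37 °C. Secreted IL-6 quantified by HTRF (665/620 nm ratio), normalized to DMSO; EC50 from four-parameter fit, duplicates.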

[1] = test system: Primary human fibroblasts derived from IPF patients (LL29 cells); test: Inhibition of the fibrotic process: αSMA staining in TGF-β1-treated LL29 fibroblasts; settings: Fibroblast; for EC50: 96 h, LL29 cells, TGF-β1 20 ng/mL, 4 days, % αSMA-positive cells
Summary of the method: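 LL29 IPF-patient lung fibroblasts plated in F12 with 1% FBS, treated with TGF-β1 plus compound; TGF-β1/DMSO wells served as controls. After 4 days incubation, SYTOX green (1 μM final) added for 30 min at room temperature; αSMA staining used as fibrosis read-out.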

[2] = test system: Wnt activity (Sp5-Luc reporter, SW480 colon carcinoma cells); test: Screening assay for Wnt activity: Sp5-Luc reporter gene assay in SW480 cells; settings: Homo sapiens; for EC50: SW480 Sp5-Luc reporter, overnight incubation
Summary of the method: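 SW480 colon carcinoma cells stably carrying Sp5 promoter (eight TCF/LEF sites)-driven firefly luciferase, plated at 4,000 cells/well in 1% FBS medium and incubated overnight at 37° C. Luminescence normalised to DMSO-only cells; EC50 from four-parameter variable-slope nonlinear regression.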

SW480 colon cancer cells = test: Cell viability assay (CellTiter-Blue) in SW480 colon cancer cells; settings: Homo sapiens; for EC50: 96 h, SW480 cell viability, four days incubation; for inhibition at 10 µM: SW480, read-out: percent inhibition at 10 μM
Summary of the method: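 Fluorescence from resazurin reduced to resorufin by metabolically active cells was the read-out, taken after ~3 h with CellTiter-Blue.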

[3] = test system: primary human mesenchymal stem cells (hMSCs); test: Induction of chondrogenesis in hMSCs (nodule imaging, Rhodamine B / Nile Red); settings: 6 days; for EC50: concentration required to induce 50% levels of chondrogenesis vs TGF-β3, read-out: Conc (nM) of 50% TGF-β3 activity; for Emax: relative to TGF-β3 (10 ng/mL) positive control, read-out: Max. Activity as % TGF-β3 activity
Summary of the method: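 Primary hMSCs at passage 3-6 were treated with compound; nodule area per well was normalized to the mean of 3 DMSO wells, averaged over 2-3 replicates, and the concentration giving 50% chondrogenesis relative to TGF-β3 control, plus maximum activity and its dose, was derived.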

`CN(C)Cc1cncc(-c2ccc3[nH]nc(-c4cc5c(-c6cccc(F)c6)cncc5[nH]4)c3c2)c1` [Compound 13, 1-(5-(3-(4-(3-Fluorophenyl)-1H-pyrrolo[2,3-c]pyridin-2-yl)-1H-indazol-5-yl)pyridin-3-yl)-N,N-dimethylmethanamine] gave an EC50 (IL-6 (THP-1 cells)) of 75 nM, an EC50 [1] of 952 nM and an EC50 [2] of 1280 nM. The EC50 (SW480 colon cancer cells) was 420 nM, the EC50 [3] was 10 nM and the Emax [3] was 193%.

Compound `CCCCC(=O)Nc1cncc(-c2ccc3[nH]nc(-c4cc5c(-c6ccoc6)cncc5[nH]4)c3c2)c1` [Compound 327] has an EC50 (IL-6 (THP-1 cells)) of 689 nM, an EC50 [1] of 1340 nM and an EC50 [2] of 915 nM. The EC50 (SW480 colon cancer cells) was 298 nM, the EC50 [3] was 30 nM and the Emax [3] was 122%.

For `CCC(=O)Nc1cncc(-c2ccc3[nH]nc(-c4cc5c(-c6cccc(F)c6)cncc5[nH]4)c3c2)c1` [Compound 1], the EC50 (IL-6 (THP-1 cells)) was 45 nM, the EC50 [1] was 62 nM and the EC50 [2] was 45 nM. For the same compound, the EC50 (SW480 colon cancer cells) was 94 nM and the Emax [3] was 34%.

`Nc1cncc(-c2ccc3[nH]nc(-c4cc5c(-c6ccccc6F)cncc5[nH]4)c3c2)c1` [Compound 59, 5-(3-(4-(2-Fluorophenyl)-1H-pyrrolo[2,3-c]pyridin-2-yl)-1H-indazol-5-yl)pyridin-3-amine] was tested, and the EC50 (IL-6 (THP-1 cells)) was 4500 nM, the EC50 [1] was 2900 nM and the EC50 [2] was 875 nM. The EC50 (SW480 colon cancer cells) was > 10000 nM, the inhibition at 10 µM (SW480 colon cancer cells) was 27.9% and the EC50 [3] was 10 nM. The Emax [3] was 58%.

`CN1CCN(c2cncc3[nH]c(-c4n[nH]c5ccc(-c6cccnc6)cc45)cc23)CC1` [Compound 228, 3-(4-(4-Methylpiperazin-1-yl)-1H-pyrrolo[2,3-c]pyridin-2-yl)-5-(pyridin-3-yl)-1H-indazole] gave an EC50 (IL-6 (THP-1 cells)) of 1370 nM, an EC50 [1] of 774 nM and an EC50 [2] of 4060 nM. For the same compound, the EC50 (SW480 colon cancer cells) was 4020 nM and the Emax [3] was 20%.

With `O=C(Nc1cncc(-c2ccc3[nH]nc(-c4cc5c(-c6ccncc6)cncc5[nH]4)c3c2)c1)C1CC1` [Compound 132, N-(5-(3-(4-(Pyridin-4-yl)-1H-pyrrolo[2,3-c]pyridin-2-yl)-1H-indazol-5-yl)pyridin-3-yl)cyclopropanecarboxamide] the EC50 (IL-6 (THP-1 cells)) was 765 nM, the EC50 [1] was > 10000 nM and the inhibition at 10 µM ([1]; read-out: percent inhibition at 10 μM) was 35.6%. For the same compound, the EC50 [2] was 395 nM, the EC50 (SW480 colon cancer cells) was > 10000 nM and the inhibition at 10 µM (SW480 colon cancer cells) was 20.6%. The Emax [3] was 37%.

`CCNCc1cncc(-c2ccc3[nH]nc(-c4cc5c(-c6ccccc6F)cncc5[nH]4)c3c2)c1` [Compound 62, N-((5-(3-(4-(2-Fluorophenyl)-1H-pyrrolo[2,3-c]pyridin-2-yl)-1H-indazol-5-yl)pyridin-3-yl)methyl)ethanamine] gave an EC50 (IL-6 (THP-1 cells)) of 7510 nM, an EC50 [1] of 9730 nM and an inhibition at 10 µM ([2]; SW480, read-out: percent inhibition at 10 μM) of 51%. For the same compound, the EC50 [2] was > 10000 nM, the EC50 (SW480 colon cancer cells) was 4720 nM and the EC50 [3] was 100 nM. The Emax [3] was 86%.

`CCC(=O)Nc1cncc(-c2ccc3[nH]nc(-c4cc5c(-c6cc(F)cc(CNS(C)(=O)=O)c6)cncc5[nH]4)c3c2)c1` [Compound 477, N-(5-(3-(4-(3-Fluoro-5-(methylsulfonamidomethyl)phenyl)-1H-pyrrolo[2,3-c]pyridin-2-yl)-1H-indazol-5-yl)pyridin-3-yl)propionamide] was tested, and the EC50 (IL-6 (THP-1 cells)) was 56 nM, the EC50 [1] was 1640 nM and the EC50 [2] was 244 nM. For the same compound, the EC50 (SW480 colon cancer cells) was 901 nM and the Emax [3] was 29%.
